Measured values published in paper PMC5841303, “In silico screening for human norovirus antivirals reveals a novel non-nucleoside inhibitor of the viral polymerase” (Scientific Reports, 2018).
Structures can show the parent of a compound that is named as a salt. Where two headings read alike, the source gives them in different places.

How the values were obtained:
human norovirus RdRp = settings: cited from earlier work
human norovirus replicon = tested on: human norovirus replicon; set-up: method as in PMID 26392512; settings: cell culture; read-out: EC50 against the human norovirus replicon; cited from earlier work
human norovirus = tested on: human norovirus; set-up: method as in PMID 27210811; settings: read-out: EC50 against human norovirus in the B-cell culture system; cited from earlier work
[1] = set-up: method as in PMID 24316032, PMID 24616282; settings: cited from earlier work
norovirus RdRp = experiment: Counter-screen gel-shift RdRp assay (primed elongation of PE44-NoV template); assay type: biochemical, human norovirus; settings: 10 µM

## C[C@@]1(O)[C@H](O)[C@@H](CO)O[C@H]1n1ccc(N)nc1=O [Compound 2CMC, 2′-C-methylcytidine]
Human norovirus RdRp; read-out: IC50 against human norovirus RdRp
  IC50: 2500 nM
Human norovirus replicon
  EC50: 8200 nM
Human norovirus
  EC50: 300 nM

## CC1=N/C(=N/Nc2cc(S(=O)(=O)O)c3cc([N+](=O)[O-])cc(S(=O)(=O)O)c3c2)C(COP(=O)(O)O)=C(C=O)C1=O [PPNDS, pyridoxal-5′-phosphate-6-(2′-naphthylazo-6′-nitro-4′,8′-disulfonate) tetrasodium salt]
[1]
  cell membrane permeability: poor cell membrane permeability
Human norovirus RdRp; in vitro, read-out: IC50 against human norovirus RdRp activity
  IC50: 450 nM

## Cc1ccc(C(=O)Nc2ccc(S(=O)(=O)O)c3cc(S(=O)(=O)O)cc(S(=O)(=O)O)c23)cc1NC(=O)c1cccc(NC(=O)Nc2cccc(C(=O)Nc3cc(C(=O)Nc4ccc(S(=O)(=O)O)c5cc(S(=O)(=O)O)cc(S(=O)(=O)O)c45)ccc3C)c2)c1 [suramin]
[1]
  cell membrane permeability: poor cell membrane permeability
Human norovirus RdRp; enzymatic assays, read-out: IC50 against human norovirus RdRp
  IC50: 27 nM

## Nc1nc2c(ncn2[C@@H]2O[C@H](COP(=O)(O)OP(=O)(O)OP(=O)(O)O)C[C@H]2O)c(=O)[nH]1 [3′dGTP, 3′-deoxyguanosine-5′-triphosphate]
Norovirus RdRp
  inhibition of transcription (gel-shift, positive control): complete inhibition
